In patent publication US20200239530A1, “COMPOUNDS AND METHODS OF MODULATING PROTEIN DEGRADATION” (Vividion Therapeutics, Inc., priority 2017, published 2020):

How the values were obtained:
Assay in all cases: Cysteine liganding, probe competition
Format in all cases: binding
[1] = target: T1, VDAC3 Voltage-dependent anion-selective channel protein (Homo sapiens, UniProt Q9Y277); details: VDAC3 Res# 229, uniprot Q9Y277
T1 construct: Cells were resuspended in cold PBS on ice and sonicated with a probe sonicator to achieve lysis; endogenous in cells
In short: (§1)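 Lysates from probe-sonicated cells in PBS (5 mg/ml proteome) were exposed to compound for 1 hr at 25° C, then labelled with desthiobiotin iodoacetamide probe (10 mM stock) for 1 hr at 25° C. Probe-tagged peptides were streptavidin-enriched after trypsin digestion.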

[2] = target: T2, UBE4A Ubiquitin conjugation factor E4 A (Homo sapiens, UniProt Q14139); details: UBE4A Res# 79, uniprot Q14139
T2 construct: Cells were resuspended in cold PBS on ice and sonicated with a probe sonicator to achieve lysis; endogenous in cells
In short: as §1

[3] = target: T3, SRRM2 Serine/arginine repetitive matrix protein 2 (Homo sapiens, UniProt Q9UQ35)
T3 construct: Cells were resuspended in cold PBS on ice and sonicated with a probe sonicator to achieve lysis; endogenous in cells
In short: as §1

[4] = target: T4, ZNF638 Zinc finger protein 638 (Homo sapiens, UniProt Q14966)
T4 construct: Cells were resuspended in cold PBS on ice and sonicated with a probe sonicator to achieve lysis; endogenous in cells
In short: as §1

[5] = target: T5, GFM1 Elongation factor G, mitochondrial (Homo sapiens, UniProt Q96RP9); details: GFM1 Res# 146, uniprot Q96RP9
T5 construct: Cells were resuspended in cold PBS on ice and sonicated with a probe sonicator to achieve lysis; endogenous in cells
In short: as §1

[6] = target: T6, TRIP12 E3 ubiquitin-protein ligase TRIP12 (Homo sapiens, UniProt Q14669); details: TRIP12 Res# 1959, uniprot Q14669
T6 construct: Cells were resuspended in cold PBS on ice and sonicated with a probe sonicator to achieve lysis; endogenous in cells
In short: as §1

[7] = target: T7, CTSC Dipeptidyl peptidase 1 (Homo sapiens, UniProt P53634)
T7 construct: 200 μL of lysate containing 5 mg/ml proteome was treated with 2 μL of 100× compound stock; endogenous in cells
In short: as §1

[8] = target: T8, RNF2 E3 ubiquitin-protein ligase RING2 (Homo sapiens, UniProt Q99496)
T8 construct: Cells were resuspended in cold PBS on ice and sonicated with a probe sonicator to achieve lysis; endogenous in cells
T8 sequence (Q99496 1-336): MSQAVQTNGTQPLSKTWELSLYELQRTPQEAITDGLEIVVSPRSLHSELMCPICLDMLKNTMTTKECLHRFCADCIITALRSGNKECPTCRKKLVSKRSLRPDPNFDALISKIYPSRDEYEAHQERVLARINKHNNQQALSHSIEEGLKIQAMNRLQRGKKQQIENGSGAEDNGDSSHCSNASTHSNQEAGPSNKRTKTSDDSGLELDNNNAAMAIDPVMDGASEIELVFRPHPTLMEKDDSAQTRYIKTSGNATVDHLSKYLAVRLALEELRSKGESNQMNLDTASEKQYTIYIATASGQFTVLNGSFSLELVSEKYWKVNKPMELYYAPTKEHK
In short: as §1

[9] = target: T9, MAP1B Microtubule-associated protein 1B (Homo sapiens, UniProt P46821)
T9 construct: Cells were resuspended in cold PBS on ice and sonicated with a probe sonicator to achieve lysis; endogenous in cells
In short: as §1

[10] = target: T10, GCN1L1 Translational activator GCN1 (Homo sapiens, UniProt Q92616)
T10 construct: 200 μL of lysate containing 5 mg/ml proteome was treated with 2 μL of 100× compound stock; endogenous in cells
In short: as §1

T10 sequence (Q92616 whole entry): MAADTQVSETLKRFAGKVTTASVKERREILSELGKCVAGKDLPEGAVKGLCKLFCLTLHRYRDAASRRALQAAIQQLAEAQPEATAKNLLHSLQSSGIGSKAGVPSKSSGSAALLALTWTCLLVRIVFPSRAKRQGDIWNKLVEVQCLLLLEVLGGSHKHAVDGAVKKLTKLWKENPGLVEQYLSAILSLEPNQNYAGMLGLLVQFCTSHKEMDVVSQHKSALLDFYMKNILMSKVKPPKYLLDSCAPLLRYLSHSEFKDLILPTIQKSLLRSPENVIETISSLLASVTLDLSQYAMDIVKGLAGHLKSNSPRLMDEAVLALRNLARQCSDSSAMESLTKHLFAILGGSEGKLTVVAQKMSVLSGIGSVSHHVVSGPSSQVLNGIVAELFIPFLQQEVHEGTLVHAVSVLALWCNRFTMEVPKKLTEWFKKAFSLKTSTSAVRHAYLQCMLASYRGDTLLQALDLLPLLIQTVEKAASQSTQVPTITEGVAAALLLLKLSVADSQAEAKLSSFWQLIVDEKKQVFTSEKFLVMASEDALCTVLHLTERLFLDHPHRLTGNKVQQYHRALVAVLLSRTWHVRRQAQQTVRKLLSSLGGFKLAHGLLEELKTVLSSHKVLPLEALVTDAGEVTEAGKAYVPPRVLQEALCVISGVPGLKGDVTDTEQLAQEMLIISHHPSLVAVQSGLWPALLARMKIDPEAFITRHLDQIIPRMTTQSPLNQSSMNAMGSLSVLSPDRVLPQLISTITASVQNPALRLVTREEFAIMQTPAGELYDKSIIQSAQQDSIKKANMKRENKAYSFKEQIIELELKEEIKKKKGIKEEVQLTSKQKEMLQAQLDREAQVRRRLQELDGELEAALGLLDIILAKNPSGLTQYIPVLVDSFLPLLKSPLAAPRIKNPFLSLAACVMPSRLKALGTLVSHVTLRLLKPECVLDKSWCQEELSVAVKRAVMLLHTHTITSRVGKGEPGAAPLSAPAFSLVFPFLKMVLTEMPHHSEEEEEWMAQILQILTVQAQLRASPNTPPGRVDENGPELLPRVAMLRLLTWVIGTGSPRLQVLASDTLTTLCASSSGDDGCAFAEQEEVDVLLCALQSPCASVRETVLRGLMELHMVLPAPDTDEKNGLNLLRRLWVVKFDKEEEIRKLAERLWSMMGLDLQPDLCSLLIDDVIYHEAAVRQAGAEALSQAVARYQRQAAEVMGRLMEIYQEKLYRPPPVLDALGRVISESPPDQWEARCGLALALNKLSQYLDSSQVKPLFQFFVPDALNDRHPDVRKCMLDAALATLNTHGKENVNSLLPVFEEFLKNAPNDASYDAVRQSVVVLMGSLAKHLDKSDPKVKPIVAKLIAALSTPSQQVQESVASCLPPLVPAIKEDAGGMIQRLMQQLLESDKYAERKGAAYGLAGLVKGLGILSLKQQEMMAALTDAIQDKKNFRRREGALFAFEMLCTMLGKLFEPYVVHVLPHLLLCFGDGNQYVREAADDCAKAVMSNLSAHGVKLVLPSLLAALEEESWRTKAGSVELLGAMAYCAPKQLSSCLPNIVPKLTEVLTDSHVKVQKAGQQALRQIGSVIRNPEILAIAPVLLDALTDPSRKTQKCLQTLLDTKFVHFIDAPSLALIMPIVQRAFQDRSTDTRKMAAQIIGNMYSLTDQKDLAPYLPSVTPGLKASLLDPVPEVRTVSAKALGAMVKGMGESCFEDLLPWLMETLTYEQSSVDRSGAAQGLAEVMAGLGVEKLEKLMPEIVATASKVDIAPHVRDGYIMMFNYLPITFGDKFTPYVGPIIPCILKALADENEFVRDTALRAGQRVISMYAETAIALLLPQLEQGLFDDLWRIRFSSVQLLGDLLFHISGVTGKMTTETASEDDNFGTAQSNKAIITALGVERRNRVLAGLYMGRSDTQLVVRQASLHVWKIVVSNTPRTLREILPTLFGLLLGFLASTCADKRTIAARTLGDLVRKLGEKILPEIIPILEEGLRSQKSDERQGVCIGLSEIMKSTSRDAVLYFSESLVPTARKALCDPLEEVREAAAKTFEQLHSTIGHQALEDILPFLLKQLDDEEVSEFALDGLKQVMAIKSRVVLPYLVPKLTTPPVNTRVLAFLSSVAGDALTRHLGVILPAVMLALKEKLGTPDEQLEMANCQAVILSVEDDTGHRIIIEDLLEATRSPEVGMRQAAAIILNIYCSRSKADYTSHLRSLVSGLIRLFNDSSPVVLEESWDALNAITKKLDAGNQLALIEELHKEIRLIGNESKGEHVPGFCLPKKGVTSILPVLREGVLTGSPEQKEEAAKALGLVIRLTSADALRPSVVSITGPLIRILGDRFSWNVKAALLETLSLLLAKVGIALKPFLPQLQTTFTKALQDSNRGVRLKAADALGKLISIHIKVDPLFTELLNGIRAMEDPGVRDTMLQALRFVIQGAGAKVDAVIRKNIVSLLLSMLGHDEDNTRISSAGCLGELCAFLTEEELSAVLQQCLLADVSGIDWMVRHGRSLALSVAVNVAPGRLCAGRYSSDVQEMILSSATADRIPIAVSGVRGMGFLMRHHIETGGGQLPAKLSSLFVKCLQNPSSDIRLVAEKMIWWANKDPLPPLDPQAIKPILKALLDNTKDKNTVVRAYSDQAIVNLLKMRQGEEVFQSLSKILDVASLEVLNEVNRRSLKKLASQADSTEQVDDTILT
T7 sequence (P53634 25-463): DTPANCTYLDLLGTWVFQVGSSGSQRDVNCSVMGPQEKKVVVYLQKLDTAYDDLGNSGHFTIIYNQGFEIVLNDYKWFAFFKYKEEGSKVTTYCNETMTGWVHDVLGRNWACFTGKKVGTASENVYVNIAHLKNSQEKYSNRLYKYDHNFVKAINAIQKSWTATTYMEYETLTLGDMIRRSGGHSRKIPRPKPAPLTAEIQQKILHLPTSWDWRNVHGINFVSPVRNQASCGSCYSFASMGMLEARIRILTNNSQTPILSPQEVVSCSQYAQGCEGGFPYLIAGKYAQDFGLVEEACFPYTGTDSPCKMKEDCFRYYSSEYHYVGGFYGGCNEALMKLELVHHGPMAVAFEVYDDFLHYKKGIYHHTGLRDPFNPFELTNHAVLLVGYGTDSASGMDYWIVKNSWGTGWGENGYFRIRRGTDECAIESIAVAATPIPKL
T4 sequence (Q14966 whole entry): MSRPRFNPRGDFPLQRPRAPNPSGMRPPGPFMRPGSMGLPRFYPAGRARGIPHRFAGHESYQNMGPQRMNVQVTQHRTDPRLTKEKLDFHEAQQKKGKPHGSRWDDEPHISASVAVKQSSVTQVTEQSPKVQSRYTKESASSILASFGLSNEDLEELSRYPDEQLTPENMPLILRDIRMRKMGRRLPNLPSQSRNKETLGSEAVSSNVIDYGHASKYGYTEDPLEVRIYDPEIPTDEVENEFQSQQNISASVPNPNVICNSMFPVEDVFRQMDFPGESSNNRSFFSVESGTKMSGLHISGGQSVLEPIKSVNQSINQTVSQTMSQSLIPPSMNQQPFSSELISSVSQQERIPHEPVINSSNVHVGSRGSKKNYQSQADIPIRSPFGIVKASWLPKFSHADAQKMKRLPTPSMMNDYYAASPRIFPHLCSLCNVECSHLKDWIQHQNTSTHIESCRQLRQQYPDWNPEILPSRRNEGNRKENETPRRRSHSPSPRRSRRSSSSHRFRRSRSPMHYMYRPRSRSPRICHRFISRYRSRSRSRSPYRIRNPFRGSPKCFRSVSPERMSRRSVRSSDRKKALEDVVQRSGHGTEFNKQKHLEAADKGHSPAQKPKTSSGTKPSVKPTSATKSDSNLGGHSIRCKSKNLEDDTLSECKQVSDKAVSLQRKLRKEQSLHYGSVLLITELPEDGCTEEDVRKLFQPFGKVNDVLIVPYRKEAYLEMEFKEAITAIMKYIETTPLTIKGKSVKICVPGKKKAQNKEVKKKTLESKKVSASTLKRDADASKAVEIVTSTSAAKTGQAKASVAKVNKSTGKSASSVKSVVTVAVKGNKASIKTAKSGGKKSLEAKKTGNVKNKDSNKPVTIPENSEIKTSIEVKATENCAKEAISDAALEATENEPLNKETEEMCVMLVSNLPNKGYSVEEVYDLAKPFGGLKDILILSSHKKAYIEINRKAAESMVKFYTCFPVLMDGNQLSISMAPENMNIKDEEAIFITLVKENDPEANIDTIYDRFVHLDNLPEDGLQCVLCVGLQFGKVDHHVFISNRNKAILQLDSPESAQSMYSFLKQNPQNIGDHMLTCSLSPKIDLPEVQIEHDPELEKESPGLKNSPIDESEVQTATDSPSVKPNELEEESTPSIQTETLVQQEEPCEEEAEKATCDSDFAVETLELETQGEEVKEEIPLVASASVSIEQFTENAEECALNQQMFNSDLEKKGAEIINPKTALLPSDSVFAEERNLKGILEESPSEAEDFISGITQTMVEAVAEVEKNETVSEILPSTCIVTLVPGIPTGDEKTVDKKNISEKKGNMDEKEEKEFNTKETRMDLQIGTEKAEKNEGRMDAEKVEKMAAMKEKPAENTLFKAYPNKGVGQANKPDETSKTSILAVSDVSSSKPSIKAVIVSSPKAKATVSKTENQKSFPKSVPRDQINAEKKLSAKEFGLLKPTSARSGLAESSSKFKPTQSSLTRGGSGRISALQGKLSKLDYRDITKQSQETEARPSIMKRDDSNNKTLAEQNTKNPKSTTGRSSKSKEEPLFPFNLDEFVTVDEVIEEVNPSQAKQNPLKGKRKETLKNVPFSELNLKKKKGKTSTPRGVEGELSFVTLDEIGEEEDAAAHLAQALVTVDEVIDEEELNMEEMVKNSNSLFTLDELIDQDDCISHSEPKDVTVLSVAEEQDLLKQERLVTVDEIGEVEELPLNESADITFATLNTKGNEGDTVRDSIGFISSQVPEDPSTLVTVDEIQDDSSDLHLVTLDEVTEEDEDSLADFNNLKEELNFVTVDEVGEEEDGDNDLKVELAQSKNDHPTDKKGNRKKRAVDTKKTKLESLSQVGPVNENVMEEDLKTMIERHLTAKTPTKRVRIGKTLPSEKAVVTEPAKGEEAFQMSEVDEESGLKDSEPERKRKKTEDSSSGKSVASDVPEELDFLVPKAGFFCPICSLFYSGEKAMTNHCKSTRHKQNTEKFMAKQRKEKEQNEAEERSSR

Compound: COc1ccc2c(c1)CCCN2C(=O)CCl [KB02]
- Liganded [1]: YES
- Liganded [2]: YES
- Liganded ([3]; SRRM2 Res# 1029, uniprot Q9UQ35): YES
- Liganded ([3]; SRRM2 Res# 1036, uniprot Q9UQ35): YES
- Liganded ([4]; ZNF638 Res# 1023, uniprot Q14966): YES
- Liganded ([4]; ZNF638 Res# 1026, uniprot Q14966): YES
- Liganded [5]: YES
- Liganded [6]: YES

Compound: O=C(CCl)Nc1cc(C(F)(F)F)cc(C(F)(F)F)c1 [KBO3]
- Liganded ([7]; CTSC Res# 258, uniprot P53634): YES
- 100 Max ([7]; uniprot P53634): 76.05
- 100 ave ([7]; uniprot P53634): 76.05
- 500 Max ([7]; uniprot P53634): 95.44
- 500 ave ([7]; uniprot P53634): 95.44
- Liganded ([8]; RNF2 Res# 54, uniprot Q99496): YES
- 100 Max ([8]; uniprot Q99496): 18.1
- 100 ave ([8]; uniprot Q99496): 0.5
- 500 Max ([8]; uniprot Q99496): 76.8
- 500 ave ([8]; uniprot Q99496): 76.8
- Liganded ([9]; MAP1B Res# 382, uniprot P46821): YES
- 100 ave ([9]; uniprot P46821): 37.5
- 500 ave ([9]; uniprot P46821): 75.17
- 500 Max ([9]; uniprot P46821, in % (unit assumed)): 75.17
- 100 Max ([9]; uniprot P46821, unit assumed): 37.5%
- Liganded ([10]; GCN1L1 Res# 648, uniprot Q92616): YES
- 100 Max ([10]; uniprot Q92616): 28.59
- 100 ave ([10]; uniprot Q92616): 25.61
- 500 Max ([10]; uniprot Q92616): 80.3
- 500 ave ([10]; uniprot Q92616): 78.745
